Measurements as given in patent US7820661B2, “Substituted gamma lactams as therapeutics agents” (Allergan, Inc., priority 2008, dated 2010).

System: lashes and adjacent hairs (hair growth)
Test: Observation of lashes and adjacent hairs in glaucoma patients treated with bimatoprost in only one eye
Format: in vivo
Text: In the course of treating patients having glaucoma, treatment may only be appropriate in one eye. […] The lash appearance on the lids of the treated eyes would have appeared quite attractive if it represented a bilateral phenomenon. As a result of its asymmetric nature, the long lashes on one side could be construed as disturbing from a cosmetic standpoint. A systemic examination was preformed as a result of the asymmetric phenomenon. It soon became apparent that this altered appearance was not an isolated finding.
The changes in the lashes were apparent on gross inspection in several patients once attention was focused on the issue. In those with light colored hair and lashes, the differences were only seen easily with the aid of the high magnification and lighting capabilities of the slit lamp biomicroscope. In the course of glaucoma follow-up examination, attention is generally immediately focused on the eye itself. As a result of the high power magnification needed only one eye is seen at a time and the eye is seen at a high enough power that the lashes are not in focus. At these higher powers, any lash asymmetry between the two eyes is not likely to be noticed except by careful systematic comparison of the lashes and adjacent hairs of the eyelids of the two eyes. […]

For `CCNC(=O)CCC/C=C\C[C@@H]1[C@@H](/C=C/[C@@H](O)CCc2ccccc2)[C@H](O)C[C@@H]1O` [bimatoprost], the “differences in the lashes and adjacent hairs of the treated side” value (all patients taking the drug on a unilateral basis for longer than 6 months) was “Definite differences could be identified to varying degrees” and the “appearance of lashes in the treated eye compared with the non-treated eye” value (glaucoma patient treated in one eye, treated vs non-treated eye) was “longer, thicker, and fuller”.
